The results in this text go back to patent US7091351B2, “Vanadium compounds for treating cancer” (Parker Hughes Institute, priority 1998, dated 2006).

Holding throughout (assay type): cell-based, human
For assay [1], the system named is BT-20 breast cancer cells. The assay is described as follows: MC540 binding / PI permeability apoptosis assay, BT-20. The settings on record: 100 μM, 24 hours. As for the experimental part:
(§1) A flow cytometric two-color terminal […] transferase (TdT)-mediated digoxigenin-uridine triphosphate (dUTP) nick-end labeling assay (TUNEL) was employed to detect apoptotic nuclei. Gavrieli, Y., Sherman, Y., Ben-Sasson, S. A. Identification of programmed cell death in situ via specific labeling of nuclear DNA fragmentation. J. Cell Biol., 119: 493–501, 1992. […] Cells were analyzed with a FACS Calibur flow cytometer (Becton Dickinson, Mountain View, Calif.). Relative DNA content (PI) was detected with band-pass filter 585/42, and dUTP incorporation (FITC) was detected with band-pass filter 530/30. Fluorescence was compensated for in the acquisition software using single-label control samples. Data were acquired in listmode, gated to 10,000 events per sample, and analyzed with the use of CELLQuest software program (Becton Dickinson). […] In other experiments, MC540 binding (as an early marker of apoptosis) and PI permeability (as a marker of advanced stage apoptosis) were simultaneously measured in human cancer cells 24 hours after exposure to vanadocenes, as previously described. […] Whole cells were analyzed using a FACStar Plus flow cytometer (Becton Dickinson, San Jose, Calif.). […]

For assay [2], the system named is Ntera-2 testicular cancer cells. The assay is described as follows: Flow cytometric TUNEL apoptosis assay, NTERA-2 cells. To be noted: 24 h, TUNEL-positive nuclei. As for the experimental part: (§2) A flow cytometric two-color terminal […] transferase (TdT)-mediated digoxigenin-uridine triphosphate (dUTP) nick-end labeling assay (TUNEL) was employed to detect apoptotic nuclei. Gavrieli, Y., Sherman, Y., Ben-Sasson, S. A. Identification of programmed cell death in situ via specific labeling of nuclear DNA fragmentation. J. Cell Biol., 119: 493–501, 1992. Exponentially growing cells (10^6/ml) were incubated in DMSO alone (0.1%) or treated with 100 μM each of the 16 vanadocenes (VDB, VDC, VMDC, VDI, VDA, VDCN, VDOCN, VDSCN, VDSeCN, VDT, VDCO, VDFe, VD(acac), VDH, VD(dpy), and VD(dtc) in 0.1% DMSO for 24 h. Cells were washed in PBS, fixed in 4% paraformaldehyde in PBS for 15 min on ice. Following two washings in PBS, they were permeabilized with 0.1% Triton X-100 in 0.1% sodium citrate for 2 min on ice, and washed twice in PBS. Labeling of exposed 3′-hydroxyl (3′-OH) ends of fragmented nuclear DNA was performed using TdT and fluorescein isothiocyanate (FITC)-conjugated dUTP according to the manufacturer's recommendations (Boehringer Mannheim, Indianapolis, Ind.). Cells were counterstained with 5 μg/ml PI. Control samples included: (i) untreated cells; (ii) cells incubated with the reaction mixture without the TdT enzyme. Cells were analyzed with a FACS Calibur flow cytometer (Becton Dickinson, Mountain View, Calif.). Relative DNA content (PI) was detected with band-pass filter 585/42, and dUTP incorporation (FITC) was detected with band-pass filter 530/30. Fluorescence was compensated for in the acquisition software using single-label control samples. Data were acquired in listmode, gated to 10,000 events per sample, and analyzed with the use of CELLQuest software program (Becton Dickinson). […] Vanadocene-induced apoptosis is shown by an increase in the number of cells staining with FITC-dUTP. The M1 and M2 gates were used to demarcate non-apoptotic and apoptotic PI-counterstained cell populations, respectively. TUNEL assays were performed using two testicular cell lines Tera-2 and Ntera-2 following exposure to each of the 16 vanadocenes. In other experiments, MC540 binding (as an early marker of apoptosis) and PI permeability (as a marker of advanced stage apoptosis) were simultaneously measured in human cancer cells 24 hours after exposure to vanadocenes, as previously described. Uckun, F. M., Narla, R. K., Jun, X., Zeren, T., Venkatachalam, T., Waddick, K. G., Rostostev, A., Myers, D. E. Cytotoxic activity of EGF-genstein against breast cancer cells. Clin. Cancer Res. 4:901–912, 1998. Vassilev, A., Ozer, Z., Navara, C., Mahajan, S., and Uckun, F. M. Bruton's tyrosine kinase as an inhibitor of the Fas/CD95 death-inducing signaling complex. J. Biol. Chem. 274:1646–56, 1999. Whole cells were analyzed using a FACStar Plus flow cytometer (Becton Dickinson, San Jose, Calif.). All analyses were done using 488 nm excitation from an argon laser. MC540 and PI emissions were split with a 600 nm short pass dichroic mirror and a 575 nm band pass filter was placed in front of one photomultiplier tube to measure MC540 emission and a 635 nm band pass filter was used for PI emission.
For orientation: Flow cytometry measures light scatter and fluorescence of single cells or particles in a stream.

Another assay deals with U87 glioblastoma cells. The assay can be described thus: MC540 binding / PI permeability apoptosis assay, U87. To be noted: 100 μM, 24 hours. The method, then: as §1
Assay [3] relates to NALM-6 B-lineage acute lymphoblastic leukemia cells. The assay can be described thus: MTT cytotoxicity assay of vanadocenes, NALM-6 cells. The settings on record: 24 h. The method, then:
(§3) Human testicular cancer cell lines, Tera-2 (embryonal carcinoma) and Ntera-2 (pluripotent embryonal carcinoma) were obtained from the American Type Culture Collection (ATCC) (Rockeville, Md.) and propagated in T-25, T-75, or T-150 cm^2 tissue culture flasks (Corning Corp., Corning, N.Y.) in McCoy's 5A medium and Dulbecco's modified Eagle's medium respectively. Both media were supplemented with 10% fetal calf serum (FCS), 4 mM glutamine, 100 U/ml penicillin G, and […] streptomycin sulfate. All tissue culture reagents were obtained from Life Technologies Inc. (GIBCO-BRL), Gaithersburg, Md. Cell lines were cultivated for a minimum of two passages after thawing prior to experimentation. Other cell lines that were used in this study were the human B-lineage acute lymphoblastic leukemia (ALL) cell line NALM-6. Uckun, F. M., Evans, W. E., Forsyth, C. J., Waddick, K. G., Tuel-Ahlgren, L., Chelstrom, L. M., Burkhardt, A., Bolen, J., Myers, D. E. Biotherapy of B-cell precursor leukemia by targeting genistein to CD19-associated tyrosine kinase. Science (Washington DC) 267:886–91, 1995; T-lineage ALL cell line MOLT-3, Waurzyniak, B., Shneider, E. A., Tumer, N., Yanishevski, Y., Gunther, R., Chelstrom, L., Wendorf, H., Myers, D. E., Irvin, J. D., Messinger, Y., Ek, O., Zeren, T., Chandan-Langlie, M., Evans, W. E., Uckun, F. M. In vivo toxicity, pharmacokinetics, and antileukemic activity of TXU (anti-CD7)-pokeweed antiviral protein immunotoxin. Clinical Cancer Research 3:881–890, 1997; AML cell line HL-60, Perentesis, J. P., Waddick, K. G., Bendel, A. E., Shao, Y., Warman, B. E., Chandan-Langlie, M., and Uckun, F. M. Induction of apoptosis in multi-drug resistant andradiation-resistant acute myeloid leukemia cells by a recombinant fusion toxin directed against the granulocyte macrophage colony stimulating factor receptor. Clin. Cancer Res. 3:347–355, 1997; breast cancer cell lines MDA-MB-231 and BT-20, Uckun, F. M., Narla, R. K., Jun, X., Zeren, T., Venkatachalam, T., Waddick, K. G., Rostostev, A., Myers, D. E. Cytotoxic activity of EGF-genstein against breast cancer cells. Clin. Cancer Res. 4:901–912, 1998; glioblastoma cell lines U87 and U373, Narla, R. K., Liu, X., Myers, D. E., and Uckun, F. M. 4-(3′-Bromo-4′hydroxylphenyl)-amino-6,7-dimethoxyquinazoline (WHI-P154): A novel quinazoline derivative with potent cytotoxic activity against human glioblastoma cells. Clin. Cancer Res. 4:1405–1414, 1998.
(§4) MTT (3-[4,5-dimethyl thiazol-2-yl]-2,5-diphenyltetrazolium bromide)-based colorimetric assays were used for evaluation of the cytotoxicity of vanadocene compounds. Mosmann, T. Rapid colorimetric assay for cellular growth and survival: application to proliferation and cytotoxicity assays. J. Immunol. Methods, 65: 55–63, 1983. Briefly, cells were harvested with 0.125% (w/v) trypsin-0.02% EDTA (GIBCO-BRL) from exponential-phase maintenance cultures and centrifuged (300 g×5 min). After suspension and counting, cells were dispensed within triplicate 96-well tissue culture plates in 100 μl volumes. After 24 h incubation, the culture medium was discarded and replaced with 100 μl of fresh medium containing serial two-fold dilutions of drugs in medium to yield 1.9 μM to 250 μM. All compounds were reconstituted in DMSO to a concentration of 100 mM, and the stock solution was made fresh for each experiment. Control wells consisted of medium containing 0.25% of DMSO alone were used for solvent control. […]

The subject of assay [4] is MDA-MB-231 breast cancer cells. The assay can be described thus: MC540 binding / PI permeability apoptosis assay, MDA-MB-231. The settings on record: 100 μM, 24 hours. The method, then: as §1
The test system of the next assay is U373 glioblastoma cells. The assay can be described thus: MTT cytotoxicity assay of vanadocenes, U373 cells. To be noted: 24 h. As for the experimental part:
as §3
as §4, with “control. Culture plates were then incubated for 24 h before adding 10 μl of MTT solution (5 mg/ml in PBS) to each well. Wells containing only medium and MTT were used as controls for each plate. The tetrazolium/formazan reaction was allowed to proceed for 4 h at 37° C., and then 100 μl of the solubilization buffer (10% sodium dodecyl sulfate in 0.1% HCl) were added to all wells and mixed thoroughly to dissolve the dark blue formazan crystals.” for “control.”
(In general: Tetrazolium dyes change colour on reduction, which living cells bring about.)

In assay [5] the test system is Tera-2 testicular cancer cells. The assay is described as follows: MTT cytotoxicity assay of vanadocenes, TERA-2 cells. The settings on record: 24 h, 1.9-250 μM. The method, then:
as §3
as §4, with “control. Culture plates were then incubated for 24 h before adding 10 μl of MTT solution (5 mg/ml in PBS) to each well. Wells containing only medium and MTT were used as controls for each plate. The tetrazolium/formazan reaction was allowed to proceed for 4 h at 37° C., and then 100 μl of the solubilization buffer (10% sodium dodecyl sulfate in 0.1% HCl) were added to all wells and mixed thoroughly to dissolve the dark blue formazan crystals.” for “control.”

Assay [6] concerns HL60 acute myeloid leukemia cells. The assay is described as follows: MC540 binding / PI permeability apoptosis assay, HL-60. The settings on record: 100 μM, 24 hours. The method, then: as §1
The subject of assay [7] is Ntera-2 testicular cancer cells. The assay can be described thus: MTT cytotoxicity assay of vanadocenes, NTERA-2 cells. To be noted: 24 h, 1.9-250 μM. The method, then: as §3
as §4, with “control. Culture plates were then incubated for 24 h before adding 10 μl of MTT solution (5 mg/ml in PBS) to each well. Wells containing only medium and MTT were used as controls for each plate. The tetrazolium/formazan reaction was allowed to proceed for 4 h at 37° C., and then 100 μl of the solubilization buffer (10% sodium dodecyl sulfate in 0.1% HCl) were added to all wells and mixed thoroughly to dissolve the dark blue formazan crystals.” for “control.”

For assay [8], the system named is Tera-2 testicular cancer cells. The assay can be described thus: Flow cytometric TUNEL apoptosis assay, TERA-2 cells. To be noted: 24 h, TUNEL-positive nuclei. As for the experimental part:
as §2

A word on the IC50: it is the midpoint of a concentration-inhibition curve. High values mean weaker potency, low ones greater potency. `C1=C[CH]([V+2][CH]2C=CC=C2)C=C1.[N-]=C=[Se].[N-]=C=[Se]` [VDSeCN, VCp2(NCSe)2]: in assay [1], the “cells with dual MC540/PI fluorescence (advanced stage apoptosis), BT-20” value was found to be 40%; the “total percentage of apoptotic cells (early and advanced stage), BT-20” value is given as 61%. In addition, the “% Apoptosis at 100 μM NTERA-2” value in assay [2] is given as 99.6 ± 0.2 (N = 4) %. Besides, in the assay with U87 glioblastoma cells, the “cells with dual MC540/PI fluorescence (advanced stage apoptosis), U87” value was 79%; the “total percentage of apoptotic cells (early and advanced stage), U87” value was determined as 90%. Moreover, the IC50 in [3] came to 3 µM. In assay [4], the “cells with dual MC540/PI fluorescence (advanced stage apoptosis), MDA-MB-231” value is reported as 67%; the “total percentage of apoptotic cells (early and advanced stage), MDA-MB-231” value is recorded as 72%. In the assay on U373 glioblastoma cells, this compound displayed a half-inhibitory concentration (IC50) of 2 µM. This compound returned an IC50 in [5] of 9 µM. In assay [6], the “cells with dual MC540/PI fluorescence (advanced stage apoptosis), HL-60” value is 51%; the “total percentage of apoptotic cells (early and advanced stage), HL-60” value is recorded as 98%. Moreover, it took 22 µM to reach half-maximal inhibition in [7] (IC50). For the same compound, the “% Apoptosis at 100 μM TERA-2” value in assay [8] was 78 (75, 80) %.
